Results on 85 molecules are retold here after PubChem BioAssay AID2744 (NMMLSC, 2010).

Calls of active or inactive are those of the source.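 The calls were made as follows: active = fitted half-maximal concentration for changing reporter fluorescence at or below a set limit; inactive = the rest.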

For the assay, the target named is Citrate synthase, peroxisomal (Saccharomyces cerevisiae (strain ATCC 204508 / S288c)) (UniProt P08679). The assay is described as follows: CIT2-GFP expression modulators in yeast, dose response, flow cytometry, MLPCN hits (AID 2744). Conditions: S. cerevisiae CIT2-GFP strain, 3 h, at 33 µM (top of the series). (In general: Flow cytometry measures light scatter and fluorescence of single cells or particles in a stream.)
Sequence of Citrate synthase, peroxisomal (Saccharomyces cerevisiae (strain ATCC 204508 / S288c)) (P08679 whole entry, looked up): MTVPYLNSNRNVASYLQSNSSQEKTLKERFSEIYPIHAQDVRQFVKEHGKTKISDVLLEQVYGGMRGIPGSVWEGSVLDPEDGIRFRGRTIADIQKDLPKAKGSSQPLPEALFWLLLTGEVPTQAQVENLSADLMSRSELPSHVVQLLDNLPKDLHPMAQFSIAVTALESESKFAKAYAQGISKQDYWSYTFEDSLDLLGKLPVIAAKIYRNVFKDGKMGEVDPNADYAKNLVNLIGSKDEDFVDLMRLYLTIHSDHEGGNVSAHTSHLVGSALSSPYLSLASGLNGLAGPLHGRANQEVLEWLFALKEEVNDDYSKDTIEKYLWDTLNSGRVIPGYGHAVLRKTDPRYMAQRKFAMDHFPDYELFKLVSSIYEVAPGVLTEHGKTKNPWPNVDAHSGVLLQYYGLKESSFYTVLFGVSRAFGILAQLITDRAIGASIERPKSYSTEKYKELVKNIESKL

Regarding `Oc1ccc(CNc2ccccc2)c2cccnc12`, the “GFP fluorescence, higher = induction” value is “inactive”. In the case of `O=C(Nc1ccc(NC(=O)c2cc3ccccc3o2)cc1)c1ccc2c(c1)OCCO2`, the “GFP fluorescence, higher = induction” value is “inactive”. As for `CCCN1CCc2c(sc(NC(=S)NC(=O)c3ccccc3)c2C#N)C1`, the “GFP fluorescence, higher = induction” value was “inactive”. In the case of `O=[N+]([O-])c1ccc(S(=O)(=O)c2ccccc2)nc1`, the “GFP fluorescence, higher = induction” value was “inactive”. In the case of `COc1ccc(C(=O)/C=C2/C(=O)Nc3ccccc32)c(OC)c1`, the “GFP fluorescence, higher = induction” value was “inactive”. As for `Cc1[nH][nH]c(=O)c1C(c1ccc(-c2ccc(Cl)c(Cl)c2)o1)c1c(C)[nH][nH]c1=O`, the entry is “inactive”; as for `COC(=O)c1cc(N2C(=O)C3C(C2=O)C2(C)C=CC3(C)O2)ccc1Cl` (stereo not given), “inactive”; as for `CCOc1ccc(N2C(=O)/C(=C\c3cccs3)C(=O)NC2=S)cc1`, “inactive”. As for `O=C(O)/C=C/C(=O)c1ccc2c(c1)CCc1ccccc1-2`, the entry is “inactive”; as for `O=C1C(Cl)=C(Nc2ccccc2O)C(=O)N1CCc1ccccc1`, “inactive”; as for `O=C(/C=C/c1ccc(F)cc1)NC(=S)NNC(=O)c1cnccn1`, “inactive”. Next, `O=C1Nc2ccccc2/C1=C\C(=O)c1ccccc1`: “inactive”; `Cc1ccc(/C=C/C(=O)c2ccc([N+](=O)[O-])o2)cc1`: “inactive”. `COc1ccc(N=Cc2nc(-c3ccccc3)oc2OC(C)=O)cc1`: the “GFP fluorescence, higher = induction” value was “inactive”. On to `N#Cc1nccnc1S(=O)(=O)c1cccs1`, for which the “GFP fluorescence, higher = induction” value is “inactive”.

As to `COc1ccc(C(=O)/C=C2/C(=O)Nc3ccccc32)cc1`, the “GFP fluorescence, higher = induction” value was “inactive”. Next, `COc1ccc(/C=C/C(=O)NC(=S)NNC(=O)c2cnccn2)cc1`: “inactive”.

On to `CS(=O)(=O)c1nc(-c2cccs2)cc(C(F)(F)F)n1`, for which the “GFP fluorescence, higher = induction” value is “inactive”. Consider `Oc1c(CN2CCCCC2)cc(Br)c2cccnc12`, for which the “GFP fluorescence, higher = induction” value was “inactive”. For `O=c1[nH]c(-c2ccccn2)nc(C(F)(F)F)c1Br`, the “GFP fluorescence, higher = induction” value is “inactive”. As for `CCc1nc2ccccc2c(=O)n1NC(=O)c1c(O)c2ccccc2n(CC)c1=O`, the entry is “inactive”; as for `O=C(Oc1oc(-c2ccco2)nc1C=Nc1ccc(Cl)cc1)c1ccco1`, “inactive”. With `CSc1nnc2c3cc(F)ccc3n(C)c2n1`, the “GFP fluorescence, higher = induction” value was “inactive”. Next, `COc1ccc([N+](=O)[O-])c(S(=O)(=O)c2ccc(Cl)cc2)n1`: “inactive”. As for `O=C(COc1c(Br)cc(Br)c2cccnc12)N1CCc2ccccc2C1`, the entry is “inactive”; as for `CC1=NOC(=O)/C1=C\c1ccc(-c2cc(Cl)ccc2Cl)o1`, “inactive”; as for `CC(C)(C)C(=O)C(Cl)C(=O)Nc1ccccc1` (stereo not given), “inactive”. For the molecule `O=[N+]([O-])c1cc(CN2CCN(c3cccc(C(F)(F)F)c3)CC2)c2cccnc2c1O`, the “GFP fluorescence, higher = induction” value was “inactive”. Turning to `CCC(=O)Oc1oc(-c2ccccc2)nc1C=Nc1ccc(C)cc1`, the “GFP fluorescence, higher = induction” value is “inactive”.

Regarding `CC(=O)N(\C=C/C=C/C=C1\Sc2ccccc2C1=O)c1ccccc1`, the “GFP fluorescence, higher = induction” value is “inactive”. As for `Oc1ccc(N=Nc2ccccc2)o1`, the entry is “inactive”.

As for `COc1ccc(N2CCN(C(=O)c3ccc(Br)cc3)CC2)c([N+](=O)[O-])c1`, the “GFP fluorescence, higher = induction” value was “inactive”. As for `CCCc1nnc(NC(=O)c2c(O)c3cccc4c3n(c2=O)CCC4)s1`, the entry is “inactive”; as for `O=C1NC(=O)N(Cc2ccco2)C(=O)/C1=C/c1ccc(-c2cccc([N+](=O)[O-])c2)o1`, “inactive”; as for `CCN(CC(=O)NC(C)(C)C)C(=O)COc1c(Cl)cc(Cl)c2ccc(C)nc12`, “inactive”.

`O=C(c1ccc([N+](=O)[O-])o1)N1CCN(c2nc3c(F)cc(F)cc3s2)CC1`: the “GFP fluorescence, higher = induction” value is “inactive”. As for `O=C(COc1ccccc1)N1CCN(c2ncnc3c2cnn3-c2ccccc2)CC1`, the entry is “inactive”; as for `COc1ccccc1N=Cc1nc(-c2ccccc2)oc1OC(C)=O`, “inactive”; as for `Cc1cccc(C)c1NC(=O)C(Cl)C(=O)c1ccccc1` (stereo not given), “inactive”. With `Cc1ccccc1[C@@]1(C)ON(c2ccccc2C(F)(F)F)C1=O`, the “GFP fluorescence, higher = induction” value is “inactive”. As for `COc1cccc(N=Cc2nc(-c3ccccc3)oc2OC(C)=O)c1`, the entry is “inactive”; as for `COc1cc(C=C2C(=O)c3ccccc3C2=O)cc(OC)c1OC`, “inactive”; as for `Cc1[nH]n(-c2ccccc2)c(=O)c1C(c1ccccc1[N+](=O)[O-])C(C#N)C#N` (stereo not given), “inactive”. Next, `Nc1ccc(Br)c2c1C(=O)c1ccccc1C2=O`: “inactive”; `CCN(CC(=O)Nc1cc(S(=O)(=O)N2CCOCC2)ccc1Cl)Cc1ccccc1`: “inactive”. As for `Oc1c(I)cc(I)c2cccnc12`, the entry is “inactive”; as for `O=C(NNC(=S)NC(=O)c1ccco1)c1ccc(F)cc1`, “inactive”. As to `CC(Oc1cc2oc(=O)c3c(c2cc1Cl)CCC3)C(=O)NCCN1CCOCC1` (stereo not given), the “GFP fluorescence, higher = induction” value was “inactive”. On to `Cc1ccc(C2=NN(S(C)(=O)=O)C(c3ccc4c(c3)OCO4)C2)cc1` (stereo not given), for which the “GFP fluorescence, higher = induction” value is “inactive”. Consider `COc1cccc2cc(-c3nc4ccccc4o3)c(=O)oc12`, for which the “GFP fluorescence, higher = induction” value was “inactive”. With `COc1ccc(-c2cc3cc(C(=O)O)ccn3c2C(=O)c2ccccc2)cc1`, the “GFP fluorescence, higher = induction” value is “inactive”. Next, `Cc1ccc(C(=O)/C=C/C(=O)c2ccc(C)cc2)cc1`: “inactive”; `O=C(c1ccccn1)c1conc1C(=O)c1ccc(Br)cc1`: “inactive”. Next, `Cc1ccc(/C=C2\SC(=S)N(CC3CCCO3)C2=O)o1` (stereo not given): “inactive”; `O=C(Oc1c(Cl)cc(Cl)c2cccnc12)c1ccco1`: “inactive”. For `Cc1ccc(S(=O)(=O)Cc2cc(F)c([N+](=O)[O-])cc2[N+](=O)[O-])cc1`, the “GFP fluorescence, higher = induction” value was “inactive”. Consider `COc1ccc(C(=O)/C=C2/C(=O)Nc3ccccc32)cc1OC`, for which the “GFP fluorescence, higher = induction” value was “inactive”. Consider `O=C(Nc1ccc(Cl)cc1Cl)c1cccc(N2C(=O)C=CC2=O)c1`, for which the “GFP fluorescence, higher = induction” value was “inactive”. `CC(C)C[C@]1(c2ccccc2)ON(c2ccccc2C(F)(F)F)C1=O`: the “GFP fluorescence, higher = induction” value is “inactive”. Next, `COc1cc(/C=C2\C(=O)ON=C2c2ccccc2)cc(OC)c1OC`: “inactive”; `Cc1ccc2[nH]c(C)c(/C=C/c3cc[n+](C)cc3)c2c1`: “inactive”. For the molecule `O=C1c2ccccc2C(=O)N1OS(=O)(=O)c1ccccc1`, the “GFP fluorescence, higher = induction” value is “inactive”. Consider `O=C(C#Cc1ccccc1)c1ccco1`, for which the “GFP fluorescence, higher = induction” value is “inactive”. On to `CCN1C(=O)/C(=C\C(=O)c2cccs2)c2cc(Br)ccc21`, for which the “GFP fluorescence, higher = induction” value was “inactive”. Take `COc1ccccc1N=Nc1ccc(O)c2ncccc12`: the “GFP fluorescence, higher = induction” value is “inactive”. Next, `Oc1c(I)cc(Cl)c2cccnc12`: “inactive”. As for `CC(C)[C@@]1(c2ccccc2)ON(c2ccccc2C(F)(F)F)C1=O`, the entry is “inactive”. As for `Cc1ccc(N2C(=O)CC(Sc3ncn[nH]3)C2=O)cc1C` (stereo not given), the entry is “inactive”; as for `Cc1ccc(C)c(/C=C/C(=O)c2ccccc(=O)c2O)c1`, “inactive”; as for `Cc1cc(S(=O)(=O)ON2C(=O)c3ccccc3C2=O)ccc1F`, “inactive”. For the molecule `O=C1CCN(S(=O)(=O)c2ccccc2)CCN1CCOCc1ccc(F)cc1`, the “GFP fluorescence, higher = induction” value was “inactive”. As for `Cc1[nH]c2ccccc2c1C(=O)COC(=O)c1ccc([N+](=O)[O-])s1`, the entry is “inactive”; as for `COc1cc(/C=C2\C(=O)ON=C2c2ccccc2)cc(Br)c1O`, “inactive”; as for `Cn1c(=O)c(C(=O)NNC(=O)c2ccc(Br)cc2)c(O)c2ccccc21`, “inactive”. As for `Cc1cc(NC(c2ccc(Cl)cc2)c2ccc3cccnc3c2O)no1` (stereo not given), the entry is “inactive”; as for `COc1ccc(C(=O)NC(=S)NNC(=O)c2cnccn2)cc1OC`, “inactive”. As to `CCCc1ccc(OCC(=O)NNC(=S)NC(=O)c2ccco2)cc1`, the “GFP fluorescence, higher = induction” value was “inactive”. Next, `CCOc1ccc(C(C)=O)cc1N1C(=O)C2C3C=CC(O3)C2C1=O` (stereo not given): “inactive”; `CC(Oc1ccc(Cl)cc1)C(=O)NNC(=S)NC(=O)c1ccco1` (stereo not given): “inactive”. Next, `CN(C)/C=C/C(=O)c1ccc(-c2ccc(Cl)cc2Cl)o1`: “inactive”. Next, `O=C1ON=C(c2ccc(Cl)cc2)/C1=C/c1ccc(O)cc1`: “inactive”; `O=c1oc2ccccc2c(O)c1[C@H]1c2ccc(O)cc2Oc2c1c(=O)oc1ccccc21`: “inactive”; `COc1ccc2c(/C=C/c3cc[n+](C)cc3)c[nH]c2c1`: “inactive”.

Consider `O=C1c2sc3nc4ccccc4n3c2C(=O)N1c1ccccc1Cl`, for which the “GFP fluorescence, higher = induction” value is “inactive”. Next, `c1ccc(-c2cccc(-c3ccccn3)n2)nc1`: “inactive”.
